Laboratory results: patent publication US20230139171A1 (SITA Information Networking Computing UK Limited, priority 2019, published 2023)

Assays:
Format in all cases: cell-based
human TLR7 = molecular target: T1, human TLR7 (Homo sapiens, UniProt Q9NYK1); assay: TLR7 inhibition reporter assay (HEK-Blue cells, SEAP reporter, gardiquimod stimulation); conditions: HEK-Blue cells overexpressing human TLR7, SEAP reporter, gardiquimod 7.5 μM; read-out: TLR7 IC50
T1 construct: host or cells: HEK-Blue cells
T1 sequence (Q9NYK1 27-1049): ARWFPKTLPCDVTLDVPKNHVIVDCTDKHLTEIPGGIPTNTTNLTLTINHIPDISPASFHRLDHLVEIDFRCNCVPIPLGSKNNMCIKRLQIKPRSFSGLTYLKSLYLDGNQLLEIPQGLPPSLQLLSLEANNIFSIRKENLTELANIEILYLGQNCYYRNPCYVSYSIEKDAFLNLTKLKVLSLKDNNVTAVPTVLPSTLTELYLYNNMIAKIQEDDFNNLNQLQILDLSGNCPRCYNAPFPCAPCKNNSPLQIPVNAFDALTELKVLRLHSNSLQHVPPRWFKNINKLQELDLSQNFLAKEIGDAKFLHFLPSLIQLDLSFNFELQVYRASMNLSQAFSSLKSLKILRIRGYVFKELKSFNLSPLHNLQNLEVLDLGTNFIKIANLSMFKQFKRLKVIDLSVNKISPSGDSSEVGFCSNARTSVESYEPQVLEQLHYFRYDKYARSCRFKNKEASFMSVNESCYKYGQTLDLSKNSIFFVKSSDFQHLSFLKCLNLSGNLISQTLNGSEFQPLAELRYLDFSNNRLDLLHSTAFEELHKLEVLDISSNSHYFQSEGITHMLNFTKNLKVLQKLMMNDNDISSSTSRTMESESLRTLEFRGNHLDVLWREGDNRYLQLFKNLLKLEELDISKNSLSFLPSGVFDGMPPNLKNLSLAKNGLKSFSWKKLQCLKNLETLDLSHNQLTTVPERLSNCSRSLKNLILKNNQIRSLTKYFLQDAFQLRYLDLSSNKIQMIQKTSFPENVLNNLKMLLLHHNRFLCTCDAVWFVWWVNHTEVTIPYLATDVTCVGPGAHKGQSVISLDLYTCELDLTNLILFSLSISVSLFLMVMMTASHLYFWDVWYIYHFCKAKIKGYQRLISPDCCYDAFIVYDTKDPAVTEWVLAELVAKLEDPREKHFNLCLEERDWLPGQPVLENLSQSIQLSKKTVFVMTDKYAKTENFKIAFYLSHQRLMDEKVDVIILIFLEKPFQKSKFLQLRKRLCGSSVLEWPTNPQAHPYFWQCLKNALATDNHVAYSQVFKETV
In short: (§1)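 HEK-Blue cells overexpressing human TLR7, TLR8 or TLR9 carry a SEAP reporter driven by NF-κB/AP-1 sites. Compounds (0.05 nM–50 μM) were preincubated 30 min at room temperature, then cells were stimulated with gardiquimod 7.5 μM (TLR7), R848 15.9 μM (TLR8) or ODN2006 5 nM (TLR9) for 22 h at 37 °C.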

human TLR8 = molecular target: T2, human TLR8 (Homo sapiens, UniProt Q9NR97); assay: TLR8 inhibition reporter assay (HEK-Blue cells, SEAP reporter, R848 stimulation); conditions: HEK-Blue cells overexpressing human TLR8, SEAP reporter, R848 15.9 μM; read-out: TLR8 IC50
T2 construct: host or cells: HEK-Blue cells
T2 sequence (Q9NR97 27-1041): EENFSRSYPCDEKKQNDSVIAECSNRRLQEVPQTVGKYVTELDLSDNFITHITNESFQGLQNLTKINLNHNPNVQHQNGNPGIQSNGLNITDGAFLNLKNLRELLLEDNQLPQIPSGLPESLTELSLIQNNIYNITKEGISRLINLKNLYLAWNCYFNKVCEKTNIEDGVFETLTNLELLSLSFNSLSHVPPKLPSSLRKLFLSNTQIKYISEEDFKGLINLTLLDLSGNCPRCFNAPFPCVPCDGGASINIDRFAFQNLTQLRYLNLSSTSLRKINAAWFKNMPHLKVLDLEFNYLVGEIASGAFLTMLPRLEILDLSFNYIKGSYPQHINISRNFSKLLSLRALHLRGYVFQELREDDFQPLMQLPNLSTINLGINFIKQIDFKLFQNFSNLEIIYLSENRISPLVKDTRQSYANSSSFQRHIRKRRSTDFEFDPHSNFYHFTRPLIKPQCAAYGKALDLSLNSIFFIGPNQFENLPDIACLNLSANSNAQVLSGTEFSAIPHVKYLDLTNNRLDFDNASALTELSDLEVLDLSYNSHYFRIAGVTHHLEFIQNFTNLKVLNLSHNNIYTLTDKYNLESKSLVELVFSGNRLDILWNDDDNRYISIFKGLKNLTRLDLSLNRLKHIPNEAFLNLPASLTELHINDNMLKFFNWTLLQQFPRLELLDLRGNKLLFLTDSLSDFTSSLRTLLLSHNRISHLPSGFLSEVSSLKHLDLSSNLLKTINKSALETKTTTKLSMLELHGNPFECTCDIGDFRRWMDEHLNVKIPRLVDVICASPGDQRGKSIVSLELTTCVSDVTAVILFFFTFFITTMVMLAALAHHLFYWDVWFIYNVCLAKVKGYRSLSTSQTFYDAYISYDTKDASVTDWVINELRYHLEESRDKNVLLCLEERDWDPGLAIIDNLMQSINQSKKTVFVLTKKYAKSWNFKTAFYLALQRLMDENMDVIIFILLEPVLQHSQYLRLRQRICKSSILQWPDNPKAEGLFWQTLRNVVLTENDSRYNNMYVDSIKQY
In short: as §1

human TLR9 = molecular target: T3, human TLR9 (Homo sapiens, UniProt Q9NR96); assay: TLR9 inhibition reporter assay (HEK-Blue cells, SEAP reporter, ODN2006 stimulation); conditions: HEK-Blue cells overexpressing human TLR9, SEAP reporter, ODN2006 5 nM
T3 construct: host or cells: HEK-Blue cells
T3 sequence (Q9NR96 26-1032): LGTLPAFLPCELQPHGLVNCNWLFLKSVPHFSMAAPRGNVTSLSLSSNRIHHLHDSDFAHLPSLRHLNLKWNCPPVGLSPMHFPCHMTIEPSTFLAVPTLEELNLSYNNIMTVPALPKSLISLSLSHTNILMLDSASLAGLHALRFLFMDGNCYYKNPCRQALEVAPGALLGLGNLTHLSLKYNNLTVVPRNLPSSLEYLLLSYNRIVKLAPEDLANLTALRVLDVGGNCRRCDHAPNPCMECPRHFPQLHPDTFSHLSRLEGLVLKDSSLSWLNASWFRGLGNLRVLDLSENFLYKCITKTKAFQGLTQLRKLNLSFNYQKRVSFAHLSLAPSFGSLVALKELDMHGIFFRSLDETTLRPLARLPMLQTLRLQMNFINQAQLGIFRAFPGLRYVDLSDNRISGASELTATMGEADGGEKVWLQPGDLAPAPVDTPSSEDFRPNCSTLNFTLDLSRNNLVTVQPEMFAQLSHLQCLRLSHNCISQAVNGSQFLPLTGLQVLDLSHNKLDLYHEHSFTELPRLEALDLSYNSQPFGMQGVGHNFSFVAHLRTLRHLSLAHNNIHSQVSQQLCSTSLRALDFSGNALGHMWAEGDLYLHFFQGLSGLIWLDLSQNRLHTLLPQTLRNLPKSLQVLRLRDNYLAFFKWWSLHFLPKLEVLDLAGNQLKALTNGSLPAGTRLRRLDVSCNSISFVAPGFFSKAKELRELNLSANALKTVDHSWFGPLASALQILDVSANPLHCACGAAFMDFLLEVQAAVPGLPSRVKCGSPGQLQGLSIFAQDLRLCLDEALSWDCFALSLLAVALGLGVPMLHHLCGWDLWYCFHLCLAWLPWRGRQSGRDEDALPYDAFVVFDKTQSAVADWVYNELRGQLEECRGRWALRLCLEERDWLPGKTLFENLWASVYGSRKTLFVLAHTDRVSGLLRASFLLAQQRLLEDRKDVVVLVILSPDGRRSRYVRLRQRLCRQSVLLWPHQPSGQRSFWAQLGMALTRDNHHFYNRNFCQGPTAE
In short: as §1

| SMILES | IC50 (human TLR7) [nM] | IC50 (human TLR8) [nM] | IC50 (human TLR9) [µM] |
| --- | --- | --- | --- |
| Cc1cc(-c2[nH]c3sc(C4CCC(NC56CC(C5)C6)CC4)nc3c2C(C)C)cn2ncnc12 (single isomer, unassigned) [Example 139, N-(4-(6-isopropyl-5-(8-methyl-[1,2,4]triazolo[1,5-a]pyridin-6-yl)-4H-pyrrolo[3,2-d]thiazol-2-yl)cyclohexyl)bicyclo[1.1.1]pentan-1-amine] | 4.96 | 26.3 | 17.5 |
| Cc1cc(-c2[nH]c3sc(C4CCC(NCC(C)(C)O)CC4)nc3c2C(C)C)cn2ncnc12 (single isomer, unassigned) [Example 140, 1-((4-(6-isopropyl-5-(8-methyl-[1,2,4]triazolo[1,5-a]pyridin-6-yl)-4H-pyrrolo[3,2-d]thiazol-2-yl)cyclohexyl)amino)-2-methylpropan-2-ol] | 0.59 | 0.89 | 10.4 |
| Cc1cc(-c2[nH]c3sc(C4CCC(NCC(C)(C)O)CC4)nc3c2C(C)C)cn2ncnc12 (single isomer, unassigned) [Example 141, 1-((4-(6-isopropyl-5-(8-methyl-[1,2,4]triazolo[1,5-a]pyridin-6-yl)-4H-pyrrolo[3,2-d]thiazol-2-yl)cyclohexyl)amino)-2-methylpropan-2-ol] | 3.03 | 13.5 | 12.8 |
| Cc1cc(-c2[nH]c3sc(C4CCC(NCC5(CO)CC5)CC4)nc3c2C(C)C)cn2ncnc12 (single isomer, unassigned) [Example 142, (1-(((4-(6-isopropyl-5-(8-methyl-[1,2,4]triazolo[1,5-a]pyridin-6-yl)-4H-pyrrolo[3,2-d]thiazol-2-yl)cyclohexyl)amino)methyl)cyclopropyl)methanol] | 2.08 | 2.7 | 6.97 |
| Cc1cc(-c2[nH]c3sc(C4CCC(NCC5(CO)CC5)CC4)nc3c2C(C)C)cn2ncnc12 (single isomer, unassigned) [Example 143, (1-(((4-(6-isopropyl-5-(8-methyl-[1,2,4]triazolo[1,5-a]pyridin-6-yl)-4H-pyrrolo[3,2-d]thiazol-2-yl)cyclohexyl)amino)methyl)cyclopropyl)methanol] | 5.34 | 19.6 | 9.28 |
| Cc1cc2ncnn2cc1-c1[nH]c2sc(C3CCC(NC4(C)COC4)CC3)nc2c1C(C)C (single isomer, unassigned) [Example 144, N-(4-(6-isopropyl-5-(7-methyl-[1,2,4]triazolo[1,5-a]pyridin-6-yl)-4H-pyrrolo[3,2-d]thiazol-2-yl)cyclohexyl)-3-methyloxetan-3-amine] | 7.26 | 3.56 | 15.2 |
| Cc1cc2ncnn2cc1-c1[nH]c2sc(C3CCC(NC4(C)COC4)CC3)nc2c1C(C)C (single isomer, unassigned) [Example 145, N-(4-(6-isopropyl-5-(7-methyl-[1,2,4]triazolo[1,5-a]pyridin-6-yl)-4H-pyrrolo[3,2-d]thiazol-2-yl)cyclohexyl)-3-methyloxetan-3-amine] | 60.3 | 41.6 | > 50 |
| Cc1cc2ncnn2cc1-c1[nH]c2sc(C3CCC(N4CCCOCC4)CC3)nc2c1C(C)C (single isomer, unassigned) [Example 146, 4-(4-(6-isopropyl-5-(7-methyl-[1,2,4]triazolo[1,5-a]pyridin-6-yl)-4H-pyrrolo[3,2-d]thiazol-2-yl)cyclohexyl)-1,4-oxazepane] | 19.7 | 0.92 | 16.3 |
| Cc1cc2ncnn2cc1-c1[nH]c2sc(C3CCC(N4CCCOCC4)CC3)nc2c1C(C)C (single isomer, unassigned) [Example 147, 4-(4-(6-isopropyl-5-(7-methyl-[1,2,4]triazolo[1,5-a]pyridin-6-yl)-4H-pyrrolo[3,2-d]thiazol-2-yl)cyclohexyl)-1,4-oxazepane] | 90.1 | 5.67 | 18.8 |
| Cc1cc2ncnn2cc1-c1[nH]c2sc(C3CCC(N4CCNC(=O)C4)CC3)nc2c1C(C)C (single isomer, unassigned) [Example 148, 4-(4-(6-isopropyl-5-(7-methyl-[1,2,4]triazolo[1,5-a]pyridin-6-yl)-4H-pyrrolo[3,2-d]thiazol-2-yl)cyclohexyl)piperazin-2-one] | 11.8 | 9.93 | > 50 |
| Cc1cc2ncnn2cc1-c1[nH]c2sc(C3CCC(N4CCNC(=O)C4)CC3)nc2c1C(C)C (single isomer, unassigned) [Example 149, 4-(4-(6-isopropyl-5-(7-methyl-[1,2,4]triazolo[1,5-a]pyridin-6-yl)-4H-pyrrolo[3,2-d]thiazol-2-yl)cyclohexyl)piperazin-2-one] | 108 | 98.5 | > 50 |
